# Measured values taken from patent publication US6737383B1, “Herbicidal oxadiazolidines” (priority 1999, dated 2004).
# Columns and labels:
# [1] = system: bedstraw; test: Test B pre/postemergence bedstraw; format: in vivo, Galium aparine
# In short: (§1)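 Herbicidal effect was estimated by eye on a ten-point control scale after plants spent twelve to sixteen days in a greenhouse following soil or foliar treatment. Foliar sprays targeted plants at one to four leaves; all doses were formulated in a non-phytotoxic solvent with surfactant.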
# [2] = system: blackgrass; test: Test B pre/postemergence blackgrass; format: in vivo, Alopecurus myosuroides
# In short: as §1
# [3] = system: surinam grass; test: Test B pre/postemergence surinam grass; format: in vivo, Brachiaria decumbens
# In short: as §1
# [4] = system: cocklebur; test: Test B pre/postemergence cocklebur; format: in vivo, Xanthium strumarium
# In short: as §1
# [5] = system: corn; test: Test B pre/postemergence corn; format: in vivo, Zea mays
# In short: as §1
# [6] = system: crabgrass; test: Test B pre/postemergence crabgrass; format: in vivo, Digitaria sanguinalis
# In short: as §1
# [7] = system: giant foxtail; test: Test B pre/postemergence giant foxtail; format: in vivo, Setaria faberii
# In short: as §1
# [8] = system: morningglory; test: Test B pre/postemergence morningglory; format: in vivo, Ipomoea hederacea
# In short: as §1
# [9] = system: pigweed; test: Test B pre/postemergence pigweed; format: in vivo, Amaranthus retroflexus
# In short: as §1
# [10] = system: rape; test: Test B pre/postemergence rape; format: in vivo, Brassica napus
# In short: as §1
# [11] = system: soybean; test: Test B pre/postemergence soybean; format: in vivo, Glycine max
# In short: as §1
# [12] = system: sugar beet; test: Test B pre/postemergence sugar beet; format: in vivo, Beta vulgaris
# In short: as §1
# [13] = system: velvetleaf; test: Test B pre/postemergence velvetleaf; format: in vivo, Abutilon theophrasti
# In short: as §1
# [14] = system: wheat; test: Test B pre/postemergence wheat; format: in vivo, Triticum aestivum
# In short: as §1
# [15] = system: wild oat; test: Test B pre/postemergence wild oat; format: in vivo, Avena fatua
# In short: as §1
# [16] = system: purple nutsedge; test: Test B pre/postemergence purple nutsedge; format: in vivo, Cyperus rotundus
# In short: as §1
# [17] = Postemergence, Rate 62 g/ha, scale 0 to 10, 0 is no effect, 10 is complete control
# [18] = Postemergence, Rate 125 g/ha, scale of 0 to 10 where 0 is no effect and 10 is complete control
# [19] = Postemergence, Rate 500 g/ha, scale 0 (no effect) to 10 (complete control)
# [20] = Preemergence, Rate 250 g/ha, scale 0 (no effect) to 10 (complete control)
# [21] = Rate 62 g/ha, Preemergence, scale 0 to 10
# [22] = Rate 125 g/ha, Preemergence, scale 0 to 10 (0 no effect, 10 complete control)
# [23] = Rate 500 g/ha, Preemergence, scale 0 to 10 (0 no effect, 10 complete control)
# [24] = Rate 250 g/ha, Postemergence, scale 0 to 10, 0 is no effect, 10 is complete control
smiles,measurement,setting,value
C#CCn1c(=O)on(C(=O)N(c2ccc(F)cc2F)C(C)C)c1=O [Compound 764],"Plant response rating, Bedstraw",[1]; [17],0
same,Bedstraw plant response rating,[1]; [18],5
same,Bedstraw plant response rating,[1]; [19],5
same,Bedstraw plant response rating,[1]; [20],5
same,Bedstraw plant response rating,[1]; [21],0
same,Bedstraw plant response rating,[1]; [22],5
same,Bedstraw plant response rating,[1]; [23],8
same,"Plant response rating, Blackgrass",[2]; [17],3
same,Blackgrass plant response rating,[2]; [18],6
same,Blackgrass plant response rating,[2]; [19],8
same,Blackgrass plant response rating,[2]; [20],8
same,Blackgrass plant response rating,[2]; [21],7
same,Blackgrass plant response rating,[2]; [22],7
same,Blackgrass plant response rating,[2]; [24],6
same,Blackgrass plant response rating,[2]; [23],9
same,"Plant response rating, B. signalgrass",[3]; [17],0
same,B. signalgrass plant response rating,[3]; [18],0
same,B. signalgrass plant response rating,"[3]; Preemergence, Rate 62 g/ha, scale of 0 to 10 where 0 is no effect and 10 is complete control",8
same,B. signalgrass plant response rating,[3]; [20],9
same,B. signalgrass plant response rating,[3]; [22],7
same,B. signalgrass plant response rating,[3]; [24],2
same,B. signalgrass plant response rating,"[3]; Rate 500 g/ha, Postemergence, scale 0 to 10, 0 is no effect, 10 is complete control",3
same,B. signalgrass plant response rating,[3]; [23],10
same,"Plant response rating, Cocklebur",[4]; [17],0
same,Cocklebur plant response rating,[4]; [18],0
same,Cocklebur plant response rating,[4]; [19],5
same,Cocklebur plant response rating,[4]; [20],0
same,Cocklebur plant response rating,[4]; [21],0
same,Cocklebur plant response rating,[4]; [24],2
same,Cocklebur plant response rating,[4]; [23],8
same,"Plant response rating, Corn",[5]; [17],0
same,Corn plant response rating,[5]; [18],0
same,Corn plant response rating,[5]; [19],4
same,Corn plant response rating,[5]; [20],6
same,Corn plant response rating,[5]; [21],0
same,Corn plant response rating,[5]; [22],0
same,Corn plant response rating,[5]; [24],0
same,Corn plant response rating,[5]; [23],9
same,"Plant response rating, Crabgrass",[6]; [17],0
same,Crabgrass plant response rating,[6]; [18],6
same,Crabgrass plant response rating,[6]; [19],9
same,Crabgrass plant response rating,[6]; [20],10
same,Crabgrass plant response rating,[6]; [21],10
same,Crabgrass plant response rating,[6]; [22],10
same,Crabgrass plant response rating,[6]; [24],9
same,Crabgrass plant response rating,[6]; [23],10
same,"Plant response rating, Giant foxtail",[7]; [17],3
same,Giant foxtail plant response rating,[7]; [18],7
same,Giant foxtail plant response rating,[7]; [19],8
same,Giant foxtail plant response rating,[7]; [20],10
same,Giant foxtail plant response rating,[7]; [21],10
same,Giant foxtail plant response rating,[7]; [22],10
same,Giant foxtail plant response rating,[7]; [24],8
same,Giant foxtail plant response rating,[7]; [23],10
same,"Plant response rating, Morningglory",[8]; [17],1
same,Morningglory plant response rating,[8]; [18],1
same,Morningglory plant response rating,[8]; [19],5
same,Morningglory plant response rating,[8]; [20],0
same,Morningglory plant response rating,[8]; [21],0
same,Morningglory plant response rating,[8]; [24],2
same,Morningglory plant response rating,[8]; [23],2
same,"Plant response rating, Redroot pigweed",[9]; [17],0
same,Redroot pigweed plant response rating,[9]; [18],5
same,Redroot pigweed plant response rating,[9]; [19],7
same,Redroot pigweed plant response rating,[9]; [20],10
same,Redroot pigweed plant response rating,[9]; [21],9
same,Redroot pigweed plant response rating,[9]; [22],10
same,Redroot pigweed plant response rating,[9]; [24],7
same,Redroot pigweed plant response rating,[9]; [23],10
same,"Plant response rating, Rape",[10]; [17],0
same,Rape plant response rating,[10]; [18],0
same,Rape plant response rating,[10]; [19],7
same,Rape plant response rating,[10]; [20],9
same,Rape plant response rating,[10]; [21],0
same,Rape plant response rating,[10]; [22],0
same,Rape plant response rating,[10]; [24],3
same,Rape plant response rating,[10]; [23],10
same,"Plant response rating, Soybean",[11]; [17],1
same,Soybean plant response rating,[11]; [19],4
same,Soybean plant response rating,[11]; [20],3
same,Soybean plant response rating,[11]; [21],0
same,Soybean plant response rating,[11]; [22],0
same,Soybean plant response rating,[11]; [24],3
same,Soybean plant response rating,[11]; [23],5
same,"Plant response rating, Sugarbeets",[12]; [17],0
same,Sugarbeets plant response rating,[12]; [19],7
same,Sugarbeets plant response rating,[12]; [20],5
same,Sugarbeets plant response rating,[12]; [21],0
same,Sugarbeets plant response rating,[12]; [22],0
same,Sugarbeets plant response rating,[12]; [24],3
same,Sugarbeets plant response rating,[12]; [23],8
same,"Plant response rating, Velvetleaf",[13]; [17],0
same,Velvetleaf plant response rating,[13]; [19],4
same,Velvetleaf plant response rating,[13]; [20],5
same,Velvetleaf plant response rating,[13]; [21],3
same,Velvetleaf plant response rating,[13]; [22],5
same,Velvetleaf plant response rating,[13]; [24],4
same,Velvetleaf plant response rating,[13]; [23],8
same,"Plant response rating, Wheat",[14]; [17],0
same,Wheat plant response rating,[14]; [21],0
same,Wheat plant response rating,[14]; [22],3
same,Wheat plant response rating,[14]; [24],7
same,Wheat plant response rating,[14]; [23],7
same,"Plant response rating, Wild oats",[15]; [17],0
same,Wild oats plant response rating,[15]; [19],3
same,Wild oats plant response rating,[15]; [20],6
same,Wild oats plant response rating,[15]; [21],0
same,Wild oats plant response rating,[15]; [22],3
same,Wild oats plant response rating,[15]; [24],2
same,Wild oats plant response rating,[15]; [23],7
same,"Plant response rating, Nutsedge",[16]; [17],0
same,Nutsedge plant response rating,[16]; [18],0
same,Nutsedge plant response rating,[16]; [19],3
same,Nutsedge plant response rating,[16]; [20],0
same,Nutsedge plant response rating,[16]; [21],0
same,Nutsedge plant response rating,[16]; [22],0
same,Nutsedge plant response rating,[16]; [24],0
same,Nutsedge plant response rating,[16]; [23],4
